This test relates to uremic C57BL/6 mice. Put plainly: carotid artery ligation (mid-focal LCA stenosis) model of neointimal hyperplasia in 5/6-nephrectomized uremic mice. It is filed as in vivo. The note with it: for mean Intima Index (ratio of intima area/intima + media area): intraperitoneal injections for 21 days, n=7. As to the method:
Carotid artery ligation was performed on 14 uremic C57BL/6 mice that underwent 5/6 nephrectomy. One week after nephrectomy, partial ligation of the left carotid artery (LCA) was performed on each mouse. Focal LCA stenosis was created by placing 9-0 nylon suture at 1mm proximal to the carotid bifurcation (mid-focal stenosis) around the artery using a 35-gauge blunt needle (World precision Instruments, Inc., Sarasota, FL). Then the needle mandrel was gently removed to restore blood flow.
Mice were fed a regular mouse diet and divided into 2 groups of 7 mice each; the experimental group received Peptide 4D while the Control group received saline injections by intraperitoneal route for 21 days, as this was the time shown in earlier studies to correlate with development of neointimal hyperplasia following partial ligation of the carotid artery.
The mice were then euthanized on day 21 and both LCA and right carotid artery (RCA) were excised for analysis. Specimens were embedded in paraffin. Serial sections (6 µm thick) were collected at 200-µm intervals of the LCA from mid-focal stenosis as well as from the RCA serving as lesion control. Data were analyzed qualitatively and quantitatively using Image J software. The two groups were compared for differences in mean Intima Area and Intima Index, defined as the ratio of intima area divided by intima plus media area.

This is an account of results in EP4789715A2, “METHODS FOR TREATING NEOINTIMAL HYPERPLASIA USING F11R/JAM-A INHIBITORS” (The Research Foundation for The State University of New York, priority 2019, dated 2026).

Non-standard residues stand in square brackets, D forms with d. Residues, ends and D or L forms follow the SMILES beside them.

For the compound `CC(C)[C@H](NC(=O)[C@H](CO)NC(=O)[C@H](N)CCCCN)C(=O)N[C@H](C(=O)N[C@H](CCCNC(=N)N)C(=O)N[C@@H](CCC(=O)O)C(=O)N[C@@H](CC(=O)O)C(=O)N[C@H](C(=O)NCC(=O)N[C@H](C(=O)N[C@@H](Cc1ccc(O)cc1)C(=O)N[C@H](C(=O)N[C@@H](CS)C(N)=O)[C@@H](C)O)[C@@H](C)O)[C@@H](C)O)[C@@H](C)O` [Peptide 4D, NH2-(dK)-SVT-(dR)-EDTGTYTC-CONH2] (H-[dK]SVT[dR]EDTGTYTC-NH2), the “experimental mice LCA with severe neointimal hyperplasia” value (7 treated mice, day 21, all LCA in control mice developed severe neointimal hyperplasia, two with complete luminal occlusion) is on record as “only one had severe neointimal hyperplasia”. In addition, the “mean Intima Index (ratio of intima area/intima + media area)” value by setting is: (average from 10 LCA locations, FIG. 6, control (0.27 + 0.13), p = 0.0079) “significantly less mean intima/intima + media ratio”; (average from 10 LCA locations, FIG. 6, control (0.27 + 0.13), p = 0.0079, listed as peptide 4D) 0.089 + 0.081; (from 1 LCA location with biggest focal stenosis, FIG. 7, control (0.47 + 0.15), p = 0.039) 0.31 + 0.14. For the same compound, the “arterial lumen (H&E-stained cross sections of the carotid artery)” value (different distances from the point of ligation, compared to occluded lumens in the controls, FIGs. 1A-1B) is listed as “arterial lumen is preserved”. In addition, the “intima area relative to distance from the ligation point” value (mid focal stenosis morphometry of LCA, 10 locations, treated versus control untreated uremic mice, FIG. 4) is “significantly smaller”. For the same compound, the neointimal hyperplasia entry (uremic C57BL/6 mice, carotid ligation model, 21 days of administration, overall conclusion in words) is “significantly inhibits neointimal hyperplasia”.
